Laboratory results from patent US9034336B2, “Immunomodulators and immunomodulator conjugates” (Regents of the University of Minnesota, priority 2011, dated 2015).

Key:
human TLR7 = biological target: T1, human TLR7 (Homo sapiens, UniProt Q9NYK1); test: TLR7/8-NF-κB reporter assay (HEK-TLR7, SEAP); assay type: cell-based; details: HEK-TLR7 cells, 24 hrs; for EC50: read-out: EC50 of TLR7 (mean ± SD)
T1 construct: host or cells: HEK (HEK293) cells with NF-kB-responsive SEAP reporter
T1 sequence (Q9NYK1 27-1049): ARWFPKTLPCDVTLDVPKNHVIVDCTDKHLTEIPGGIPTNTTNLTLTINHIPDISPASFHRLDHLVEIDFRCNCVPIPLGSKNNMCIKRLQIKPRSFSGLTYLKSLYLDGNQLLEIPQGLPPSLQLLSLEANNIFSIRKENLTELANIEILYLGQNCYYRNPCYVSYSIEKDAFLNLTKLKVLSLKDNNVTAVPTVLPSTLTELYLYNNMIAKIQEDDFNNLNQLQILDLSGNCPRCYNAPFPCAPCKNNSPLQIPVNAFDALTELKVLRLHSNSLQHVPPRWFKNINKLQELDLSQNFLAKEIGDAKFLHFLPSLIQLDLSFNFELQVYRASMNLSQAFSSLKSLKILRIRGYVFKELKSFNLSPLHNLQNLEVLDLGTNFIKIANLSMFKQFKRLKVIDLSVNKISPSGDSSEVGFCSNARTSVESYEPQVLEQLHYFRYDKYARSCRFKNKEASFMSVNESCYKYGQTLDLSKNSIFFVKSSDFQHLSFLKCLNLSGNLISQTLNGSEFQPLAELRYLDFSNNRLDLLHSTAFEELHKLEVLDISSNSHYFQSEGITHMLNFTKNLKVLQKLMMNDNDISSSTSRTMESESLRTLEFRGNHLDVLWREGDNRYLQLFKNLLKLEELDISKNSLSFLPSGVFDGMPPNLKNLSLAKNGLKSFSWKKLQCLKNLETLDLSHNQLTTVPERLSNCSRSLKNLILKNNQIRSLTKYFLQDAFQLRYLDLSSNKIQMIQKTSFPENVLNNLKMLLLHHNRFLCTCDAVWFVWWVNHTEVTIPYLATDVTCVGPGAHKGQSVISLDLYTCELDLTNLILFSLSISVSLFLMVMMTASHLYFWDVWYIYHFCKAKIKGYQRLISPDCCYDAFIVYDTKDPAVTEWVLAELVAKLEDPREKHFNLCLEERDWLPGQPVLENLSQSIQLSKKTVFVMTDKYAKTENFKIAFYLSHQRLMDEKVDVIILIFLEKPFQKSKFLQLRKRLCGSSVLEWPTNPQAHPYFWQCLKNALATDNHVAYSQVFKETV
Procedure: (§1) Human embryonic kidney (HEK) cells that were stably transfected with human TLR7 or TLR8 and an NF-κB—responsive secreted embryonic alkaline phosphatase (SEAP) gene (HEK-TLR7/8) were purchased from InvivoGen (San Diego, Calif.). The procedure used to measure TLR7 or TLR8 agonist activity was conducted as described by Hood et al. (Hood J. D, et al., Human Vaccines, 2010, 6, 4, 322-335). Briefly, HEK-TLR7/8 cells were stimulated with 3.3 or 30 μM of compound in a 96-well plate in DMEM containing 10% FBS and 0.01% Normocin (InvivoGen) for 24 hrs. Twenty microliters of the supernatant from each well was incubated with Quanti-blue substrate solution (InvivoGen) at 37° C. for 1 hour and absorbance was read at 650 nm using a Synergy plate reader (Biotek, Winooski, Vt.).

human TLR8 = biological target: T2, human TLR8 (Homo sapiens, UniProt Q9NR97); test: TLR7/8-NF-κB reporter assay (HEK-TLR8, SEAP); assay type: cell-based; details: HEK-TLR8 cells, 24 hrs, read-out: EC50 of TLR8 (mean ± SD)
T2 construct: host or cells: HEK (HEK293) cells with NF-kB-responsive SEAP reporter
T2 sequence (Q9NR97 27-1041): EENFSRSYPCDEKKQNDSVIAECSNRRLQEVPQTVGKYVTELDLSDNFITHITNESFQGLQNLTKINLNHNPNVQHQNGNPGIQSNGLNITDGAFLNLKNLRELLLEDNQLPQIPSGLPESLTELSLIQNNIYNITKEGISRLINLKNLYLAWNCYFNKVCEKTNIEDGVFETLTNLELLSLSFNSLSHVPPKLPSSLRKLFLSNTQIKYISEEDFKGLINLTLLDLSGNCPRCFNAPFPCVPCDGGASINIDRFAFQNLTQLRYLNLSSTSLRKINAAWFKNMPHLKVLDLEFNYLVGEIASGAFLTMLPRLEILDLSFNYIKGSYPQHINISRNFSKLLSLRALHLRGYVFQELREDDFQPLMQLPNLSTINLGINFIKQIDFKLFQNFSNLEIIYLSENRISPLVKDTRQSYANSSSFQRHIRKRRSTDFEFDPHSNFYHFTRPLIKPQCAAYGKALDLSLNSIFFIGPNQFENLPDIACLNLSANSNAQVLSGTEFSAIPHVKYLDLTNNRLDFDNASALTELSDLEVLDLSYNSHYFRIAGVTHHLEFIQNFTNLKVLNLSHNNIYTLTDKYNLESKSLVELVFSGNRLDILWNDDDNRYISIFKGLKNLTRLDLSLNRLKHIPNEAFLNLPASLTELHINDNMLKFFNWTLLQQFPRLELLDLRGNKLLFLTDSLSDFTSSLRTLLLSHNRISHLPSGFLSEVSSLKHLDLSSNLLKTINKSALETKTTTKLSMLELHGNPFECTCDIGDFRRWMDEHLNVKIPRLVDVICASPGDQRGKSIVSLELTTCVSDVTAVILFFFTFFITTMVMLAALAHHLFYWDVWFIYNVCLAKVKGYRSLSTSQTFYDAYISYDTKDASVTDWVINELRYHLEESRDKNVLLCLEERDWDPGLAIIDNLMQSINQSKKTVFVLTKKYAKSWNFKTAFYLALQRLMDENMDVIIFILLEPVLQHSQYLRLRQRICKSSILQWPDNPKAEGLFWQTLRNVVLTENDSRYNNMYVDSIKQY
Procedure: as §1

SMILES | EC50 of TLR7 (mean ± SD) (human TLR7) | EC50 (human TLR7) [µM] | EC50 (human TLR8) [µM]
COC(=O)c1ccc2c(c1)nc(N)c1ncn(CC(C)(C)O)c12 [Compound 421, 4-amino-1-(2-hydroxy-2-methylpropyl)-7-methoxycarbonyl-1H-imidazo[4,5-c]quinoline] | NO EC50 |  | 
COC(=O)c1ccc2c(c1)nc(N)c1ncn(Cc3ccccc3)c12 [Compound 422, 4-amino-1-benzyl--7-methoxycarbonyl-1H-imidazo[4,5-c]quinoline] | NO EC50 |  | 
CCOC(=O)c1ccc2c(c1)nc(N)c1ncn(CC(C)C)c12 [Compound 511, 4-Amino-7-ethoxycarbonyl-1-(2-methylpropyl)-1H-imidazo[4,5-c]quinoline] |  | 7.92 ± 1.49 | 
CCCc1nc2c(N)nc3cc(C(=O)OC)ccc3c2n1CC(C)(C)O [Compound 518, 4-amino-1-(2-hydroxy-2-methylpropyl)-7-methoxycarbonyl-2-propyl-1H-imidazo[4,5-c]quinoline] |  | 23.8 ± 4.34 | 
CCCCc1nc2c(N)nc3cc(C(=O)OC)ccc3c2n1CCOCc1ccccc1 [Compound 520, 4-Amino-1-(2-(benzyloxy)ethyl)-2-butyl-7-methoxycarbonyl 1H-imidazo[4,5-c]quinoline] |  | 2.42 ± 0.19 | 31 ± 10.6
CCCCc1nc2c(N)nc3cc(C(=O)OC)ccc3c2n1CCOC [Compound 521, 4-Amino-2-butyl-1-(2-methoxyethyl)-7-methoxycarbonyl-1H-imidazo[4,5-c]quinolone] |  | 5.67 ± 0.81 | 
CCCCc1nc2c(N)nc3cc(C(=O)OC)ccc3c2n1CCO [Compound 529, 4-Amino-2-butyl-1-(2-hydroxyethyl)-7-methoxycarbonyl-1H-imidazo[4,5-c]quinoline] |  | 22.9 ± 5.28 | 4.41 ± 0.49
CCCCc1nc2c(N)nc3cc(C(=O)OC(C)C)ccc3c2n1CC(C)O (centres unmarked) [Compound 530, 4-Amino-2-butyl-1-(2-hydroxypropyl)-7-isopropoxycarbonyl-1H-imidazo[4,5-c]quinoline] |  | 2.5 ± 0.15 | 5.82 ± 0.2
CCCCc1nc2c(N)nc3cc(C(=O)OCC)ccc3c2n1CC(C)O (centres unmarked) [Compound 531, 4-Amino-2-butyl-1-(2-hydroxypropyl)-7-ethoxycarbonyl-1H-imidazo[4,5-c]quinoline] |  | 5.23 ± 0.16 | 4.73 ± 0.55
COC(=O)c1ccc2c(c1)nc(N)c1nc(Cc3ccccc3)n(CC(C)(C)O)c12 [Compound 535, 4-Amino-2-benzyl-1-(2-hydroxyl-2-methylprop-yl)-7-methoxycarbonyl-1H-imidazo[4,5-c]quinoline] |  | 4.79 ± 0.46 | 
COCCc1nc2c(N)nc3cc(C(=O)OC)ccc3c2n1CC(C)O (centres unmarked) [Compound 536, 4-Amino-1-(2-hydroxypropyl)-2-(2-methoxyethyl)-7-carboxylate-1H-imidazo[4,5-c]quinoline] |  | 20.2 ± 4.11 | 31.7 ± 1.54

More lines, in order of falling EC50 (human TLR7), values ahead:

EC50 of TLR7 (mean ± SD) (human TLR7) | EC50 (human TLR7) [µM] | EC50 (human TLR8) [µM] | SMILES
 | 49.2 ± 17.3 |  | COC(=O)c1ccc2c(c1)nc(N)c1nc(C)n(CC(C)(C)O)c12 [Compound 516, 4-amino-1-(2-hydroxy-2-methylpropyl)-7-methoxycarbonyl-2-methyl-1H-imidazo[4,5-c]quinoline]
 | 29.1 ± 4.33 |  | CCc1nc2c(N)nc3cc(C(=O)OC)ccc3c2n1CC(C)(C)O [Compound 517, 4-amino-2-ethyl-1-(2-hydroxy-2-methylpropyl)-7-methoxycarbonyl-1H-imidazo[4,5-c]quinoline]
 | 21.2 ± 5.22 | 21.2 ± 19.9 | COC(=O)c1ccc2nc(N)c3ncn(CC(C)C)c3c2c1 [Compound 504, 4-amino-1-isobutyl-8-methoxycarbonyl-1H-imidazo[4,5-c]quinoline]
 | 3.94 ± 0.25 | 17.2 ± 5.33 | CCCCc1nc2c(N)nc3cc(C(=O)OC(C)C)ccc3c2n1CC(C)(C)O [Compound 526]
 | 2.6 ± 0.18 | 7.15 ± 0.29 | CCCCCc1nc2c(N)nc3cc(C(=O)OC)ccc3c2n1CC(C)(C)O [Compound 527, 4-Amino-1-(2-hydroxyl-2-methylpropyl)-7-methoxy carbonyl-2-pentyl-1H-imidazo[4,5-c]quinoline]
 | 2.21 ± 0.44 | 19.9 ± 1.04 | CCCCc1nc2c(N)nc3cc(C(=O)OCC)ccc3c2n1CC(C)(C)O [Compound 525, 4-Amino-2-butyl-1-(2-hydroxyl-2-methylprop-yl)-7-ethoxycarbonyl-1H-imidazo[4,5-c]quinoline]
